Experimental findings from patent US11571418B2, “Platinum compounds that inhibit constitutive STAT3 signaling and induce cell cycle arrest and apoptosis of malignant cells” (H. LEE MOFFITT CANCER CENTER AND RESEARCH INSTITUTE, INC., priority 2011, dated 2023) are described below.

One test deals with T1, E2F1 (Homo sapiens, UniProt Q01094).
T1 construct: made in house; host or cells: Sf-9 insect cells infected with baculovirus
Put plainly: Non-STAT protein added to activated Stat3 before EMSA (titration of compound). Format: binding.

The next test deals with NFκB-Luc. Put plainly: NFκB promoter-driven luciferase reporter assay. The class given is cell-based. The settings on record: transient transfection in mouse fibroblasts. Here is the method:
FIGS. 3A-3D. Inhibition of Stat3-mediated gene expression by PLATINUM-401. (FIG. 3A) and (FIG. 3B) v-Src-transformed mouse fibroblasts that stably express Stat3-dependent (NIH3T3/v-Src/pLucTKS3) and Stat3-independent (NIH3T3/v-Src/pRLSRE) luciferase reporters or β-galactosidase (β-gal), as well as normal mouse fibroblast (NIH3T3) transiently transfected with pLucTKS3, pGL2-VEGF-Luc, NFkB-Luc or pLucSRE together with or without v-Src were treated with or without PLATINUM-401 for 48 h. Cytosolic extracts were then prepared from cells for luciferase and […] activities measurements. […]
Cell proliferation and TUNEL assays—Proliferating cells were first treated with or without PLATINUM-401 for up to 48 h. A portion of cells were harvested for BrdU incorporation following the manufacturer's (BD Biosciences Pharmingen, San Diego, Calif.) instructions and analyzed by flow cytometry. Harvested cells were also analyzed for apoptosis via detection of TdT-mediated dUTP nick-end labeling (TUNEL) assay using Apoptosis Detection Systems Fluorescein according to the manufacturer's (Roche, Indianapolis, Ind.) instructions. […]
To further investigate the activities of PLATINUM-401, the inventors treated malignant cells and measured effects on Stat3 signaling. […]

In test [1] the test system is malignant cells harboring constitutively-active Stat3. The experiment in a line: Ki67 proliferation index by immunohistochemistry. The class given is cell-based. As for the experimental part:
(§1) FIGS. 5A and 5B. Evaluation for effects of PLATINUM-401 on cellular constitutive Stat3 activation and cell proliferation. Normal or malignant cells were treated with or without PLATINUM-401 and nuclear extracts were prepared for Stat3 DNA-binding activity assay with hSIE probe, or cells were processed for nuclear Ki67 immunohistochemistry. (FIG. 5A) EMSA analysis of Stat3 DNA-binding activity; (FIG. 5B) Graphical representations of quantified nuclear staining of Ki-67 proliferation index. Stat3:Stat3-DNA complexes in gels are labeled. The Ki-67 proliferation indexes were calculated as the percent positive tumor cells relative to the total number of cells. […]
(§2) Immunohistochemistry—The indirect peroxidase-antiperoxidase test was performed on cytospins prepared from cell lines (control and treated). […] The presence of Ki-67 nuclear staining was calculated as percent positive tumor cells in relation to the total number of cells.
(§3) The inventors further examined the biological effects of PLATINUM-401 and determined whether any changes might correlate with the inhibition of constitutively-active Stat3. […]
(§4) Changes in cell proliferation induced by treatment with PLATINUM-401 were assayed in terms of Ki67 proliferation index by immunohistochemistry. The presence of Ki-67 nuclear staining was calculated as the percent positive tumor cells in relation to the total number of cells.

Test [2] deals with normal NIH 3T3 fibroblasts. Put plainly: Ki67 proliferation index by immunohistochemistry. Format: cell-based, mouse. The settings on record: no persistent Stat3 activity. As for the experimental part: as §1, §2, §3, §4

T1 sequence (Q01094 whole entry, species assumed): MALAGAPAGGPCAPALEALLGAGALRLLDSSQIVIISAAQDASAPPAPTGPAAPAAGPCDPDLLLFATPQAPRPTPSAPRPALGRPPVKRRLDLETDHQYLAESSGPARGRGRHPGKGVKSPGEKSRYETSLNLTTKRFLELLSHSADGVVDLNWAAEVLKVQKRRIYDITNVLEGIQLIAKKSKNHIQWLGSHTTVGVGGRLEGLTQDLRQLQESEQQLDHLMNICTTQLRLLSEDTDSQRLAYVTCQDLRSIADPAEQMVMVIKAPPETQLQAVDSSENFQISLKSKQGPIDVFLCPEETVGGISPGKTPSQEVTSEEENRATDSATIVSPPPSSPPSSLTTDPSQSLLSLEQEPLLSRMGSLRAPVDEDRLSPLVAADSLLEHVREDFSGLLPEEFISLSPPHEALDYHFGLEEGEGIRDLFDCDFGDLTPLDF

Turning to `CC(O)CN1CCN(CC(C)O)CC1` (stereo not shown) [PLATINUM-401], the “influence of E2F1 protein on compound's effect on Stat3 DNA-binding activity” value at E2F1 is on record as “failed to significantly influence”. Also, the “induction of NFκB promoter-driven luciferase reporter activity” value with NFκB-Luc is on record as “no inhibitory effects”. In addition, the Ki67 nuclear staining entry in test [1] is given as “significant decreases”. Further, the “proliferation (Ki67 index)” value in test [2] is recorded as “lack of effect”.
